Source: patent US7579356B2, “Thia-tetraazaacenaphthylene kinase inhibitors” (Janssen Pharmaceutica NV, priority 2005, dated 2009)
Values joined by “and” are separate entries in the source; they are usually repeats but may differ in a detail not shown here. Identical values can stand only once.

How the values were obtained:
EGFR = molecular target: T1, EGFR (Homo sapiens, UniProt P00533); test: EGFR Kinase Assay; type: biochemical; details: for IC50: GST-EGFR, ATP 5 μM; for inhibition at 2 µM: test concentration of 2 μM, compounds without an IC50, read-out: EGFR inhibition in percent
T1 construct: The intracellular portion of EGFR started at nucleotide 2189 (corresponding to amino acid 667) and ended at the termination codon; made in house; host or cells: Sf9 insect cells (baculovirus)
Procedure, shortened: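 Potency came from triplicate 16-point half-log titrations starting at 200 uM, with IC50 fitted from % inhibition against log concentration, or % inhibition at 2 μM otherwise. Reaction: Sf9-made GST–EGFR cytoplasmic region (aa 667 onward), biotin-polyGluTyr, 5 μM ATP with 33P tracer, pH 8.0 Tris/Mg/vanadate/DTT, 30 °C for 1 h; captured on streptavidin Flashplates and counted.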

HCT-116 colon carcinoma = test: Cell Proliferation Inhibition Assay, HCT-116 (14C-thymidine); type: cell-based; details: Homo sapiens, HCT-116 cell proliferation
From the text: Cell Proliferation Inhibition Assay
The ability of a test compound to inhibit unregulated cell proliferation may be determined by measuring incorporation of ^14C-labelled thymidine into newly synthesized DNA within cell lines derived from carcinomas originating from several tissues. Accordingly, the effect of a test compound on proliferation of cells with a variety of phenotypes may be determined.
Carcinoma cell lines used include the HeLa cervical adenocarcinoma from the American Type Culture Collection (ATCC Cat. #CCL2), A375 malignant melanoma (ATCC Cat. #CRL-1619), HCT-116 colon carcinoma (ATCC Cat. #CCL-247), SKBR3 breast carcinoma (ATCC Cat. #HTB-30) and BT474 breast carcinoma (ATCC Cat. #HTB-20).
The carcinoma cells were trypsinized and counted. The cells (3000-8000 count) were added to each well of a 96-well CytoStar tissue culture treated scintillating microplate (Amersham #RPNQ0160) in complete medium (100 μL) and the plate was then incubated in complete medium for 24 hrs at 37° C. in an inert atmosphere containing 5% CO2.
Test compound (1 μL) in 100% DMSO was added to the plate test-wells with DMSO only added to control-wells. The plate was incubated in complete medium for a second 24 hr period at 37° C. in an atmosphere containing 5% CO2.
An aliquot of a solution of Methyl ^14C-thymidine (56 mC/mmol) (NEN #NEC568 or AMersham #CFA532) and complete medium (20 uL to provide 0.2 μCl/well) was then added to each well and the plate was incubated for a third 24 hr period at 37° C. in an atmosphere containing 5% CO2.
The plate contents were then discarded, the plate washed twice with PBS (200 μL) and then PBS (200 μL) was added to each well. The plate was sealed and the degree of methyl ^14C-thymidine incorporation was quantified on a Packard Top Count.
Cell proliferation of the Hela cell line was measured using the ATP-Lite method as described in the ATP Lite Kit (Perkin-Elmer Kit Number 6106941) or the C^14 method as described above. Cell proliferation of the other cell lines was measured using the C^14 method.

Lyn kinase (human) = molecular target: T2, Lyn kinase (human) (Homo sapiens, UniProt P07948); test: Lyn Kinase Assay; type: biochemical; details: for inhibition at 2 µM / % Inhibition (Lyn): test concentration of 2 μM; for % Inhibition (Lyn): 2 µM
T2 construct: purchased Upstate Biotechnology, Lake Placid, N.Y
Procedure, shortened: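 Radiometric filter-binding assay with recombinant human Lyn, poly(Glu,Tyr) substrate (0.1 mg/mL final), 5 μM ATP plus γ-33P-ATP in MOPS pH 7.5/Mg acetate buffer; 40 min at 30 °C, stopped with phosphoric acid, counted by scintillation. Reported as percent inhibition at 2 μM, with IC50 (μM) where determined.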

T2 sequence (P07948 whole entry): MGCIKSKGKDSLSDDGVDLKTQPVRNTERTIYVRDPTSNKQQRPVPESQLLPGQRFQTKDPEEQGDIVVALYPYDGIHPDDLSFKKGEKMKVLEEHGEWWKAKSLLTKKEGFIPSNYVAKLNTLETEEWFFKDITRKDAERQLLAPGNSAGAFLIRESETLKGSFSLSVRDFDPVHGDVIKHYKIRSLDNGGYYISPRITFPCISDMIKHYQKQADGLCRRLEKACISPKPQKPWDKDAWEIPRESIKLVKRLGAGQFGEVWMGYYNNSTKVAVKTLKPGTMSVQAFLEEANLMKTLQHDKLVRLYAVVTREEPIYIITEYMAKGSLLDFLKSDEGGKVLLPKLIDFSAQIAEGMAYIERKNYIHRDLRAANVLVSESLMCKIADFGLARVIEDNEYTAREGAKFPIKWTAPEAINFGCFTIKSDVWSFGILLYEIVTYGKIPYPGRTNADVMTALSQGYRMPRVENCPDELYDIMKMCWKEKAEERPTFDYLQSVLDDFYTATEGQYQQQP
T1 sequence (P00533 669-1210 limits assumed): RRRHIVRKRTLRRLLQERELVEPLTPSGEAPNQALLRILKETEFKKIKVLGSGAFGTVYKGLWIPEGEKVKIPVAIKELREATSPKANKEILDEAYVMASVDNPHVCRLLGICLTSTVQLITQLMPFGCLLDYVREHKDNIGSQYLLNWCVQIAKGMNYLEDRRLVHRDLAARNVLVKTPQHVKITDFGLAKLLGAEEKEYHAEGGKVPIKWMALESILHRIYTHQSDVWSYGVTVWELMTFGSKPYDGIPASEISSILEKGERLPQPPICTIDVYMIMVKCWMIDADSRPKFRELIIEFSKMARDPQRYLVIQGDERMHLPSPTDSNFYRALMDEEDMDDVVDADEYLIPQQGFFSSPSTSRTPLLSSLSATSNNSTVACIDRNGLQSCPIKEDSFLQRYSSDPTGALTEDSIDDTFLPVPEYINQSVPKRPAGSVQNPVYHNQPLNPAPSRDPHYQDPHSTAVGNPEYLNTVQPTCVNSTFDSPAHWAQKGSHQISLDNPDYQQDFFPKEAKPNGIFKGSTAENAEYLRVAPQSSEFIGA

IC50 (EGFR) [nM] | IC50 (HCT-116 colon carcinoma) [nM] | inhibition at 2 µM (EGFR) [%] | inhibition at 2 µM (Lyn kinase (human)) [%] | % Inhibition (Lyn) (Lyn kinase (human)) | IC50 (Lyn kinase (human); value in parentheses) [nM] | Structure (SMILES)
184 | 67900 |  |  |  |  | O=C(Nc1ccc(CN2CCOCC2)cc1)c1sc2ncnc3c2c1NC(=O)N3c1cccc(Br)c1 [Cpd 36, 5-(3-bromo-phenyl)-4-oxo-4,5-dihydro-3H-1-thia-3,5,6,8-tetraaza-acenaphthylene-2-carboxylic acid (4-morpholin-4-ylmethyl-phenyl)-amide]
 |  | 47 | 71 |  |  | COc1cc(N2C(=O)Nc3c(C(=O)Nc4ccc(CN5CCCC5)cc4)sc4ncnc2c34)c(Cl)cc1Cl [Cpd 43, 5-(2,4-dichloro-5-methoxy-phenyl)-4-oxo-4,5-dihydro-3H-1-thia-3,5,6,8-tetraaza-acenaphthylene-2-carboxylic acid (4-pyrrolidin-1-ylmethyl-phenyl)-amide]
 |  | 25 | 50 |  |  | COc1ccc(Cl)c(N2C(=O)Nc3c(C(=O)Nc4ccc(OC)c(OC)c4)sc4ncnc2c34)c1 [Cpd 49, 5-(2-chloro-5-methoxy-phenyl)-4-oxo-4,5-dihydro-3H-1-thia-3,5,6,8-tetraaza-acenaphthylene-2-carboxylic acid (3,4-dimethoxy-phenyl)-amide]
 |  | 30 | 60 |  |  | COc1ccc(Cl)c(N2C(=O)Nc3c(C(=O)Nc4ccc(OCCN5CCOCC5)c(OC)c4)sc4ncnc2c34)c1 [Cpd 50, 5-(2-chloro-5-methoxy-phenyl)-4-oxo-4,5-dihydro-3H-1-thia-3,5,6,8-tetraaza-acenaphthylene-2-carboxylic acid [3-methoxy-4-(2-morpholin-4-yl-ethoxy)-phenyl]-amide]
 |  | 53 | 70 |  |  | COc1ccc(Cl)c(N2C(=O)Nc3c(C(=O)Nc4ccc(CN5CCOCC5)cc4)sc4ncnc2c34)c1 [Cpd 51, 5-(2-chloro-5-methoxy-phenyl)-4-oxo-4,5-dihydro-3H-1-thia-3,5,6,8-tetraaza-acenaphthylene-2-carboxylic acid (4-morpholin-4-ylmethyl-phenyl)-amide]
 |  | 25 | 52 |  |  | COC(=O)c1sc2ncnc3c2c1NC(=O)N3c1c(Cl)ccc2c1OCO2 [Cpd 54, 5-(5-chloro-benzo[1,3]dioxol-4-yl)-4-oxo-4,5-dihydro-3H-1-thia-3,5,6,8-tetraaza-acenaphthylene-2-carboxylic acid methyl ester]
 |  | 29 | 50 |  |  | COc1cc(N2C(=O)Nc3c(C(=O)Nc4ccc(CN5CCN(C)CC5)cc4)sc4ncnc2c34)c(Cl)cc1Cl [Cpd 60]
356 |  |  | 92 |  |  | O=C(Nc1ccc(CN2CCOCC2)cc1)c1sc2ncnc3c2c1NC(=O)N3c1c(Cl)ccc2c1OCO2 [Cpd 62, 5-(5-chloro-benzo[1,3]dioxol-4-yl)-4-oxo-4,5-dihydro-3H-1-thia-3,5,6,8-tetraaza-acenaphthylene-2-carboxylic acid (4-morpholin-4-ylmethyl-phenyl)-amide]
159 |  |  | 26 |  |  | O=C(Nc1ccc(NCCCN2CCOCC2)nc1)c1sc2ncnc3c2c1NC(=O)N3c1cccc(Br)c1 [Cpd 64, 5-(3-bromo-phenyl)-4-oxo-4,5-dihydro-3H-1-thia-3,5,6,8-tetraaza-acenaphthylene-2-carboxylic acid [6-(3-morpholin-4-yl-propylamino)-pyridin-3-yl]-amide]
34 |  |  |  | 4% and 0.5% |  | O=C(Nc1ccc(CN2CCCCC2)cc1)c1sc2ncnc3c2c1NC(=O)N3c1ccc(OCc2ccccn2)c(Cl)c1 [Cpd 89, 5-[3-chloro-4-(pyridin-2-ylmethoxy)-phenyl]-4-oxo-4,5-dihydro-3H-1-thia-3,5,6,8-tetraaza-acenaphthylene-2-carboxylic acid (4-piperidin-1-ylmethyl-phenyl)-amide]
112 |  |  | -8.1 |  |  | CN1CCN(Cc2ccc(NC(=O)c3sc4ncnc5c4c3NC(=O)N5c3ccc(OCc4ccccn4)c(Cl)c3)cc2)CC1 [Cpd 90, 5-[3-chloro-4-(pyridin-2-ylmethoxy)-phenyl]-4-oxo-4,5-dihydro-3H-1-thia-3,5,6,8-tetraaza-acenaphthylene-2-carboxylic acid [4-(4-methyl-piperazin-1-ylmethyl)-phenyl]-amide]
10 |  |  | 27 | 16.8% |  | O=C(Nc1ccc(CN2CCCCC2)cc1)c1sc2ncnc3c2c1NC(=O)N3c1ccc(Oc2ccccc2)cc1 [Cpd 96, 4-oxo-5-(4-phenoxy-phenyl)-4,5-dihydro-3H-1-thia-3,5,6,8-tetraaza-acenaphthylene-2-carboxylic acid (4-piperidin-1-ylmethyl-phenyl)-amide]
13 |  |  | 36.5 | 26.6% |  | O=C(Nc1ccc(CN2CCOCC2)cc1)c1sc2ncnc3c2c1NC(=O)N3c1ccc(Oc2ccccc2)cc1 [Cpd 97, 4-oxo-5-(4-phenoxy-phenyl)-4,5-dihydro-3H-1-thia-3,5,6,8-tetraaza-acenaphthylene-2-carboxylic acid (4-morpholin-4-ylmethyl-phenyl)-amide]
22 |  |  | 30.7 | 50.0% |  | CN1CCN(Cc2ccc(NC(=O)c3sc4ncnc5c4c3NC(=O)N5c3ccc(Oc4ccccc4)cc3)cc2)CC1 [Cpd 98, 4-oxo-5-(4-phenoxy-phenyl)-4,5-dihydro-3H-1-thia-3,5,6,8-tetraaza-acenaphthylene-2-carboxylic acid [4-(4-methyl-piperazin-1-ylmethyl)-phenyl]-amide]
15 |  |  | 40 | 50% |  | COc1cc(NC(=O)c2sc3ncnc4c3c2NC(=O)N4c2ccc(Oc3ccccc3)cc2)ccc1OCCN1CCCCC1 [Cpd 100, 4-oxo-5-(4-phenoxy-phenyl)-4,5-dihydro-3H-1-thia-3,5,6,8-tetraaza-acenaphthylene-2-carboxylic acid [3-methoxy-4-(2-piperidin-1-yl-ethoxy)-phenyl]-amide]
 |  | 41 | 70 | 69% |  | O=C(Nc1ccc(CN2CCOCC2)cc1)c1sc2ncnc3c2c1NC(=O)N3c1c(Cl)cccc1Cl [Cpd 104, 5-(2,6-dichloro-phenyl)-4-oxo-4,5-dihydro-3H-1-thia-3,5,6,8-tetraaza-acenaphthylene-2-carboxylic acid (4-morpholin-4-ylmethyl-phenyl)-amide]
21 |  |  | 60 | 55% |  | O=C(Nc1ccc(CN2CCOCC2)cc1)c1sc2ncnc3c2c1NC(=O)N3c1ccc(Oc2ccccc2)c(F)c1 [Cpd 113, 5-(3-fluoro-4-phenoxy-phenyl)-4-oxo-4,5-dihydro-3H-1-thia-3,5,6,8-tetraaza-acenaphthylene-2-carboxylic acid (4-morpholin-4-ylmethyl-phenyl)-amide]
 |  | 11 | 55 |  | 1440 | O=C(Nc1ccc(CN2CCOCC2)cc1)c1sc2ncnc3c2c1NC(=O)N3c1ccc(N2CCOCC2)cc1 [Cpd 123, 5-(4-morpholin-4-yl-phenyl)-4-oxo-4,5-dihydro-3H-1-thia-3,5,6,8-tetraaza-acenaphthylene-2-carboxylic acid (4-morpholin-4-ylmethyl-phenyl)-amide]
29 |  |  |  |  |  | O=C(Nc1ccc(CN2CCCCC2)cc1)c1sc2ncnc3c2c1NC(=O)N3c1ccc(Sc2ccccc2)cc1 [Cpd 169, 4-oxo-5-(4-phenylsulfanyl-phenyl)-4,5-dihydro-3H-1-thia-3,5,6,8-tetraaza-acenaphthylene-2-carboxylic acid (4-piperidin-1-ylmethyl-phenyl)-amide]
77 |  |  |  |  |  | O=C(Nc1ccc(CN2CCOCC2)cc1)c1sc2ncnc3c2c1NC(=O)N3c1ccc(Sc2ccccc2)cc1 [Cpd 178, 4-oxo-5-(4-phenylsulfanyl-phenyl)-4,5-dihydro-3H-1-thia-3,5,6,8-tetraaza-acenaphthylene-2-carboxylic acid (4-morpholin-4-ylmethyl-phenyl)-amide]
